Measurements taken from PubChem BioAssay AID504928 (The Scripps Research Institute Molecular Screening Center, 2011).
Activity calls are given as the source filed them. No rule for the calls is given here.

Legend:
Assay in all cases: cell viability loss in various cell types – MTT absorbance, EuMyc, HS578, 70Z/3, T47D, SKBR, late-stage follow-up (AID 504928)
Conditions in all cases: tumor cell line panel viability, at 10 µM, stronger effect = lower value
[1] = system: 9E10 Cell Line
[2] = system: SKBR Cell Line
[3] = system: 70Z/3 Cell Line
[4] = system: EuMyc Lymphoma Cell Line
[5] = system: MCF7 Cell Line
[6] = system: T47D Cell Line
[7] = system: MD-MDA-231 Cell Line
[8] = system: HS578 Cell Line
[9] = system: Raji Cell Line
[10] = system: Jurkat Cell Line

## O=c1cc(N2CCN(c3cccc(Cl)c3)CC2)[nH]c(=O)n1C1CCCCC1
[1]
  viability fold change: 0.8 (inactive)
[2]
  viability fold change: 0.19
[3]
  viability fold change: 0.5
[4]
  viability fold change: 0.63 (inactive)
[5]
  viability fold change: 0.17
[6]
  viability fold change: 0.19
[7]
  viability fold change: 0.11
[8]
  viability fold change: 0.16
[9]
  viability fold change: 0.19
[10]
  viability fold change: 0.19
